Test results taken from PubChem BioAssay (NCI).
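All cell lines were grown in 96-well plates and treated with compound for 48 hours. GI50 = concentration required for 50% inhibition of growth. TGI is the concentration that stops growth completely.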

Columns and labels:
Experiment in all cases: NCI-60 cell line screen, 48 h
[1] = test system: DU-145 prostate
[2] = test system: HCT-15 colon
[3] = test system: K-562 leukemia
[4] = test system: LOX IMVI melanoma
[5] = test system: OVCAR-4 ovarian
[6] = test system: RPMI-8226 leukemia
[7] = test system: RXF 393 renal
[8] = test system: SF-268 CNS
[9] = test system: UACC-62 melanoma
[10] = test system: MALME-3M melanoma

Structure (SMILES) | GI50 [1] [µM] | TGI [1] [µM] | GI50 [2] [µM] | TGI [2] [µM] | GI50 [3] [µM] | TGI [3] [µM] | GI50 [4] [µM] | TGI [4] [µM] | GI50 [5] [µM] | TGI [5] [µM] | GI50 [6] [µM] | TGI [6] [µM] | GI50 [7] [µM] | TGI [7] [µM] | GI50 [8] [µM] | TGI [8] [µM] | GI50 [9] [µM] | TGI [9] [µM] | TGI [10] [µM] | GI50 [10] [µM]
O=c1[nH]c2ccccc2n1C1CCNCC1 | > 100 | > 100 | > 100 | > 100 | > 100 | > 100 | > 100 | > 100 | > 100 | > 100 | > 100 | > 100 | > 100 | > 100 | > 100 | > 100 | > 100 | > 100 |  | 
CC(=O)C1(O)CC2(c3ccccc3)C(=O)C1(c1ccccc1)C(c1ccccc1)=C2c1ccccc1 (stereo unspecified) |  |  |  | > 100 |  | > 100 |  | > 100 |  | > 100 |  | > 100 |  | > 100 |  | > 100 |  | > 100 | > 100 | 
O=C1C2C3CC4C5C3C1C5C1(SCCS1)C42 (stereo unspecified) |  |  |  | > 100 |  | > 100 |  |  |  | > 100 |  | > 100 |  | > 100 |  | > 100 |  | > 100 | > 100 | 
O=S1OC(c2ccccc2)(c2ccccc2)C(c2ccccc2)(c2ccccc2)O1 |  |  |  | > 100 |  | > 100 |  | > 100 |  | > 100 |  | > 49.4 |  | > 100 |  | > 100 |  | > 100 | > 100 | 
Cn1cc(C2NC(=O)c3ccccc3N2)c2ccccc21 (stereo unspecified) |  |  |  | 8.48 |  |  |  | > 89.8 |  | 58.4 |  |  |  | 0.704 |  | > 100 |  |  | > 29.7 | 
C=CCC1(O)c2ccccc2C(=O)c2c(OCC(=O)OCC)ccc(OCC(=O)OCC)c21 (stereo unspecified) | > 100 | > 100 | > 100 | > 100 | > 100 | > 100 | > 100 | > 100 | > 100 | > 100 | 89 | > 100 |  |  | > 100 | > 100 | 64.7 | > 100 |  | 
NC1=C(O)c2cccc3cccc(c23)C1=O |  |  |  | > 100 |  | > 100 |  | > 100 |  | > 100 |  | > 100 |  | > 100 |  | > 100 |  | > 100 | > 100 | 
CC(C)=CCC/C(C)=C/CC/C(C)=C/CSC[C@H](NC(=O)CCCCCN1CCN(C)CC1)C(=O)NC1CCCCCC1 | 1.93 | 3.52 | 1.94 | 3.93 | 2.24 | 5.14 | 1.76 | 3.29 | 3.21 | 13.1 | 1.98 | 4.67 |  |  | 2.02 | 4.03 | 1.78 | 3.44 | 3.56 | 1.94
Cc1ccc(S(=O)c2ccccc2[N+](=O)[O-])cc1 (stereo unspecified) |  |  |  | > 100 |  | > 100 |  | > 100 |  | > 100 |  | > 100 |  | > 100 |  |  |  | > 100 | > 100 | 
O=c1nc2n(-c3cccc(Cl)c3)c3ccc([N+](=O)[O-])cc3cc-2c(=O)[nH]1 | 6.73 | > 25 | 9.28 | > 25 | 17.1 | > 25 | 1.93 | 9.52 | > 25 | > 25 | 3.13 | 10.8 | 10.1 | > 25 | 3.56 | 13.3 | 3.54 | 8.38 |  | 
CC(C)=CC[C@@H]1CC2(CC=C(C)C)C(=O)C(OC3(C(=O)c4ccccc4)C(=O)C4(CC=C(C)C)C[C@@H](CC=C(C)C)C(C)(C)C(CC=C(C)C)(C4=O)C3=O)(C(=O)c3ccccc3)C(=O)C(CC=C(C)C)(C2=O)C1(C)C (stereo partly specified) | 1.35 | 3.88 | 1.41 | 5.23 | 1.72 | 50 | 1.23 | 3.24 |  |  | 1.05 | 2.7 | 1.13 | 2.69 | 1.13 | 2.89 | 0.878 | 1.98 | 2.18 | 0.901
COc1ccc(-c2csc3c2-n2cccc2C3=O)cc1 | 0.0601 |  | 0.0276 | > 100 | 0.00275 |  | 0.0349 | > 100 | 2.58 | > 100 | 0.0259 |  |  |  | 0.0434 | > 100 | 0.232 | > 100 | > 100 | 
O=c1c2ccccc2nc(-c2cccc([N+](=O)[O-])c2)n1O |  | > 100 |  | > 100 |  |  |  | > 100 |  | > 100 |  | > 33.7 |  | > 100 |  | > 100 |  | > 100 | > 100 | 
COc1ccc(C(=O)C(C(=O)CCC(=O)Nc2ccc(Cl)c(Cl)c2)c2ccc(OC)cc2)cc1 (stereo unspecified) |  |  |  | > 100 |  | > 100 |  | > 100 |  | > 100 |  | > 100 |  | > 100 |  | > 100 |  | > 100 | > 100 | 
CCOC(=O)c1noc2c1CCc1c-2cn(Cc2ccc(OC)cc2)c1-c1cc(OC)c(OC)c(OC)c1 | 2.32 | 6.14 | 0.499 | > 100 |  |  | 0.646 | > 100 | 20.5 | > 100 | 2.85 | > 100 | 2.17 | 45.6 | 8.07 | > 100 | 2.74 | > 100 |  | 
C/C(CN1C(=O)c2ccccc2C1=O)=N\NS(=O)(=O)c1ccc2ccccc2c1 |  |  |  | > 100 |  | > 100 |  | > 100 |  | > 100 |  | > 100 |  |  |  | > 100 |  | > 100 | > 100 | 
O=S(=O)(NCCCNc1cc(-c2cn(-c3ccccc3)nc2-c2cccc(O)c2)ccn1)c1ccc(C(F)(F)F)cc1 | 2.65 | 8.11 | 1.47 | 3.36 | 0.924 | 4.59 | 1.67 | 3.12 | 1.87 | 5.78 | 1.66 | 4.82 | 1.24 | 2.84 | 1.85 | 4.95 | 1.53 | 3.17 |  | 
